Measurements published in ChEMBL document CHEMBL1201862, “PubChem BioAssay data set” (2004).
Activity calls are given as the source filed them.

Assays:
[1] = target: Luciferin 4-monooxygenase (Photinus pyralis, UniProt P08659); assay: Counter Screen for Luciferase-based Assay Positives. [Related pubchem assays: 620, 618, 411 ]
HT-1080 = assay: cytotoxicity in HT1080 fibrosarcoma cells, cell-based, fluorescence readout (AID 620); type: functional; details: Homo sapiens
[2] = target: T1, Calpain-2 catalytic subunit (Sus scrofa, UniProt P43367); assay: pig calpain II inhibitor potency, dose response, biochemical, fluorogenic peptide substrate (AID 1420); type: functional
T1 sequence (P43367 whole entry): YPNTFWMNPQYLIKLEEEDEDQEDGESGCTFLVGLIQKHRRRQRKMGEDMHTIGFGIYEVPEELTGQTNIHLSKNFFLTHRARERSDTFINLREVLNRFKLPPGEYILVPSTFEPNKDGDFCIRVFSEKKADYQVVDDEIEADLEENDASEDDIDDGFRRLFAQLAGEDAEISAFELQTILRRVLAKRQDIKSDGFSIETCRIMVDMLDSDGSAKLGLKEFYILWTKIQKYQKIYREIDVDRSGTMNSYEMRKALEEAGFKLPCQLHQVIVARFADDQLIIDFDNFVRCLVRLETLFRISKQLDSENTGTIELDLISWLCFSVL

[3] = A549 cell cytotoxicity, dose response, cytotoxicity control, plate reader, cherry-pick, antagonist series (AID 743412); type: functional, cell-based
[4] = HepG2 cell cytotoxicity, dose response, cytotoxicity control, plate reader, cherry-pick, antagonist series (AID 743416); type: functional, cell-based
[5] = LGR2 antagonists, dose response, cell-based, HEK293, CRE-luciferase reporter, cherry pick, set 2 (AID 743343); type: functional;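 further: transfected cells were stimulated with diluted bursicon conditioned medium after compound addition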
[6] = MC4R antagonists, dose response, counter-screen for LGR2 antagonist project, cell-based, plate reader, cherry pick (AID 743444); type: functional;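 further: transfected HEK 293 cells stimulated with alpha-MSH peptide; potency of inhibitors of the alpha-MSH evoked signal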
[7] = HEK293 cell cytotoxicity, dose response, cytotoxicity control, plate reader, cherry-picked samples (AID 743446); type: functional, cell-based
[8] = target: T2, 1-phosphatidylinositol 4,5-bisphosphate phosphodiesterase gamma-1 (Homo sapiens, UniProt P19174); assay: Counterscreen for inhibitors of phospholipase C isozymes (PLC-B3): Fluorescence-based biochemical high throughput dose response assay to identify inhibitors of phospholipase C isozymes (PLC-gamma1).
T2 sequence (P19174 whole entry): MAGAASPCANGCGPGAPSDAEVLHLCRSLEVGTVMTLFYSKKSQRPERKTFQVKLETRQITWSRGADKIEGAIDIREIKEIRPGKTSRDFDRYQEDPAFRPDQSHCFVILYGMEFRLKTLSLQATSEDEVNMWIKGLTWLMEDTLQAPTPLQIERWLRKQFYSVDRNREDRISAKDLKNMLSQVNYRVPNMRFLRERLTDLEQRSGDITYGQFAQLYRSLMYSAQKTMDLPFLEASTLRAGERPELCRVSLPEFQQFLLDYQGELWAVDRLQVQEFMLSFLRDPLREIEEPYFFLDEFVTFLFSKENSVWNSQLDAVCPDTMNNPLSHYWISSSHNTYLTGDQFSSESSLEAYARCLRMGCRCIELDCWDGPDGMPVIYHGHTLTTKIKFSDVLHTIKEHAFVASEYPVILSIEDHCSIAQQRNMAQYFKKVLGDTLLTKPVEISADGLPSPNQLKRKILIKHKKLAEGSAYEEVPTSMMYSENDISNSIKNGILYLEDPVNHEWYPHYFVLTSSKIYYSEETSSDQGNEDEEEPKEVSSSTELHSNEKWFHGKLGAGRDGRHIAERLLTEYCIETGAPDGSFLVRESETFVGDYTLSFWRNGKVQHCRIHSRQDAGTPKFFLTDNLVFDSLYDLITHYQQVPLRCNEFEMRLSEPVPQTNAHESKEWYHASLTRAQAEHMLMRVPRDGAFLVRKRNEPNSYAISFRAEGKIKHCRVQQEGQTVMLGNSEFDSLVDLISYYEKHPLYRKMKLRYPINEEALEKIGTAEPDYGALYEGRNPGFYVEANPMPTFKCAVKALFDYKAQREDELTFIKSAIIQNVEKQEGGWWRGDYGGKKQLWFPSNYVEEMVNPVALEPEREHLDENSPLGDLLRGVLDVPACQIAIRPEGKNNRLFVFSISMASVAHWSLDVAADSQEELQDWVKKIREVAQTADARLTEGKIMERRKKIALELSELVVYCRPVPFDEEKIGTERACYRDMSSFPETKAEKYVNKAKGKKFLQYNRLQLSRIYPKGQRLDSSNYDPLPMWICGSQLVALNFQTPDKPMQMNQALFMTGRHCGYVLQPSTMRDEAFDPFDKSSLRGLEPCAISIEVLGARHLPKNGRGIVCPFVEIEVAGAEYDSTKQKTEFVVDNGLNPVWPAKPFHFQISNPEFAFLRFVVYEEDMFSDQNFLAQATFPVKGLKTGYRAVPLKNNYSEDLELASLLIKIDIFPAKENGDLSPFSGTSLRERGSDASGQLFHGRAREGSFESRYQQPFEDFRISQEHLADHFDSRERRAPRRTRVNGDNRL

[9] = target: T3, 1-phosphatidylinositol 4,5-bisphosphate phosphodiesterase beta-3 (Homo sapiens, UniProt Q01970); assay: Fluorescence-based biochemical high throughput dose response assay to identify inhibitors of phospholipase C isozymes (PLC-B3).
T3 sequence (Q01970 whole entry): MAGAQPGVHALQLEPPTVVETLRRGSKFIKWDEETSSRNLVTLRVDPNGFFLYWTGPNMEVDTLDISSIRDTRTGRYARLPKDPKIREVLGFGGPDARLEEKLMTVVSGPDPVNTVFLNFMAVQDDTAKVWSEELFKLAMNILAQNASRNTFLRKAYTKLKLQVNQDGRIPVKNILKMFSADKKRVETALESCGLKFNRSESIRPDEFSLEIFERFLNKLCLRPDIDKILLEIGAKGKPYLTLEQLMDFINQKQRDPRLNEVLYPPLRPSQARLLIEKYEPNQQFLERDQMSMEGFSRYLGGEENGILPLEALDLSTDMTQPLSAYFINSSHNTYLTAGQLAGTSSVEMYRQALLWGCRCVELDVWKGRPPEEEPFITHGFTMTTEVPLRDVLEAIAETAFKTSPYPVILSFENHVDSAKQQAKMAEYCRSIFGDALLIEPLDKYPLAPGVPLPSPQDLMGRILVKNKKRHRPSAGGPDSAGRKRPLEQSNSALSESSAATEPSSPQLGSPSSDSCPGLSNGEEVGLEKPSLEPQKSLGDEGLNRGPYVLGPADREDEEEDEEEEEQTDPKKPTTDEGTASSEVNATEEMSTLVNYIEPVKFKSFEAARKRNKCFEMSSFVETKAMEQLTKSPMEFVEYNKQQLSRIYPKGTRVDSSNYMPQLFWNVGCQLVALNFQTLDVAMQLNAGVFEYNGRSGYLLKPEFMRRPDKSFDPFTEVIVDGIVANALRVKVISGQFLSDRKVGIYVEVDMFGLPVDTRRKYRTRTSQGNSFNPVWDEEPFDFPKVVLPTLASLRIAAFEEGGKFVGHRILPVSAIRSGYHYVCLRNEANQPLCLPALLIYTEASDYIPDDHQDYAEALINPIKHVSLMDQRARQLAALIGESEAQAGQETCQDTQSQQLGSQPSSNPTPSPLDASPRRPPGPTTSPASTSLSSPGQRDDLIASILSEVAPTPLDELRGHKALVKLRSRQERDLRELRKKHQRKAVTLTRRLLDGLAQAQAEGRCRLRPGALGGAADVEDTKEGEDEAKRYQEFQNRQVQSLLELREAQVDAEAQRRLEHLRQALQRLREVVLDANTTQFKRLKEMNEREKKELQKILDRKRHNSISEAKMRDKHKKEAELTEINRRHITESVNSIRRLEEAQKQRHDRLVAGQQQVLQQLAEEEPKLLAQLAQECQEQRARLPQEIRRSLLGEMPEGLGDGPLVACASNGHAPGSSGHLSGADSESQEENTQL

Estrogen receptor beta [10] = target: T4, Estrogen receptor beta (Homo sapiens, UniProt Q92731);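 further: recombinant ER-beta bound to coactivator SRC1 peptide in presence of estradiol agonist; inhibitors block coactivator peptide binding and lower the FRET signal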
T4 sequence (Q92731 whole entry): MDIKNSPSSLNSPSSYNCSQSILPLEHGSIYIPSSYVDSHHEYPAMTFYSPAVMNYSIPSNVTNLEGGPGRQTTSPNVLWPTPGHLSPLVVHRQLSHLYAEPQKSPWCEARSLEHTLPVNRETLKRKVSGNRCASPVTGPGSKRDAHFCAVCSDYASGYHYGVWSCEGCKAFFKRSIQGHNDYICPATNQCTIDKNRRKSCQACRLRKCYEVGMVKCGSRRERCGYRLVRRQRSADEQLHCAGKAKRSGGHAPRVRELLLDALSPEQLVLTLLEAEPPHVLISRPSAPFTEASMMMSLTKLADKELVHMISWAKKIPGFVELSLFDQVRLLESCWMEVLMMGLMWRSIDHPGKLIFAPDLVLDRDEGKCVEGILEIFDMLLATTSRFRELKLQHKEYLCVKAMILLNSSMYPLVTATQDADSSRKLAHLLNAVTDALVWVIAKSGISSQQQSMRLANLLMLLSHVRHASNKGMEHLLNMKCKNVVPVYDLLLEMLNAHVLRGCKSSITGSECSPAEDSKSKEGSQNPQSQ

Estrogen receptor beta [11] = target: T4, Estrogen receptor beta; assay: ERβ–SRC-3 coactivator interaction inhibitors, confirmation, orthogonal assay, biochemical, ELISA, streptavidin-HRP readout (AID 1060)
[12] = target: DNA dC->dU-editing enzyme APOBEC-3A (Homo sapiens, UniProt P31941); assay: Dose Response confirmation of small molecule APOBEC3A DNA Deaminase Inhibitors via a fluorescence-based single-stranded DNA deaminase assay. [Related pubchem assays (depositor defined):AID493011, AID493024]; type: functional
DNA dC->dU-editing enzyme APOBEC-3A, sequence (P31941 whole entry): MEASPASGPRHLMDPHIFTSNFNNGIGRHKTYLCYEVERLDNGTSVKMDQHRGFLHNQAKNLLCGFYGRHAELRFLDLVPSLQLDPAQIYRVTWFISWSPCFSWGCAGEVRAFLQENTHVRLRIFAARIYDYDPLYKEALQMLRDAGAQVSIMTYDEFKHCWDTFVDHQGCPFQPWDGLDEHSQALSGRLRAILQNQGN

[13] = target: DNA dC->dU-editing enzyme APOBEC-3G (Homo sapiens, UniProt Q9HC16); type: functional;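 further: Dose-response counterscreen measuring inhibition of APOBEC3G DNA deaminase activity, run while confirming APOBEC3A inhibitors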
DNA dC->dU-editing enzyme APOBEC-3G, sequence (Q9HC16 whole entry): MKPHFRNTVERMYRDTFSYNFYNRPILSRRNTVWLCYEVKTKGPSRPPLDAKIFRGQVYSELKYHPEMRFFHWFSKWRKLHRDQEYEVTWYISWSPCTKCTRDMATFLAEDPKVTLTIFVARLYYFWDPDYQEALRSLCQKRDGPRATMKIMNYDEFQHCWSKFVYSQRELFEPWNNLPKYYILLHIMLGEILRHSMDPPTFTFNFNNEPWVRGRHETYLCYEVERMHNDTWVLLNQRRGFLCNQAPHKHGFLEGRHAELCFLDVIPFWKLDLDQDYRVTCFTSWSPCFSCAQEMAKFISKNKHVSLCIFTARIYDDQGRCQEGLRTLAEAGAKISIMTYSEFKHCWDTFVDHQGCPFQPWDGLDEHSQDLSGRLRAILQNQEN

Paired box protein Pax-8 = Paired box protein Pax-8 (Homo sapiens, UniProt Q06710); assay: inhibitors of PAX8-driven TPO luciferase reporter, dose response, RMG-I cells, cherry-pick (AID 687027); type: functional, cell-based;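 further: luciferase reporter driven by Pax8 target thyroperoxidase promoter measured by SteadyGlo luminescence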
Paired box protein Pax-8, sequence (Q06710 whole entry): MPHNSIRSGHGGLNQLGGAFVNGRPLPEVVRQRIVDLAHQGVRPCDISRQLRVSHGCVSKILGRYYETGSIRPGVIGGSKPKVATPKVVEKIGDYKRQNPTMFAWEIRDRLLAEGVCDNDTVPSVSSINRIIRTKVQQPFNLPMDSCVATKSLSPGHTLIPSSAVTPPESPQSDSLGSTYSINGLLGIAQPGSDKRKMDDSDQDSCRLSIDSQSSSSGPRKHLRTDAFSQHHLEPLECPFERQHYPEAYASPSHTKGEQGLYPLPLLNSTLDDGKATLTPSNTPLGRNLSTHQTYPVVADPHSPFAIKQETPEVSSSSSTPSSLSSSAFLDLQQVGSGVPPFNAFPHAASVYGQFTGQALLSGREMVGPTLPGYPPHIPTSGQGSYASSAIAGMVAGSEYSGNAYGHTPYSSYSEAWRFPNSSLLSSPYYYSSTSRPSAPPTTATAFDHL

[14] = NIH:OVCAR-3 ovarian cancer cell cytotoxicity, dose response, PAX8 inhibitor project, plate reader, dry powder samples (AID 743044); type: functional, cell-based
[15] = cytotoxicity in OVCAR8 ovarian cancer cells, dose response, PAX8 project, cell-based, plate reader, dry powder samples (AID 743197); type: functional; details: OVCAR-8
[16] = Artemis endonuclease inhibitor potency, dose response, biochemical, fluorescence intensity (AID 720701); type: functional;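 further: Artemis endonuclease enzyme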
[17] = P. falciparum late gametocyte killing, dose response, luminescence (AID 1117278); type: functional, cell-based;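 further: gametocytes exposed to compound for 24 hours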
[18] = Jurkat T cell cytotoxicity, dose response, cytotoxicity control for P. falciparum gametocyte viability project, luminescence (AID 1117277); type: functional, cell-based;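 further: potency reflects loss of cellular ATP meaning fewer viable cells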
[19] = HEp-2 cell cytotoxicity, dose response, cytotoxicity control for RSV inhibitor project, HTS (AID 2410); type: functional; details: human respiratory syncytial virus
[20] = THP-1 cell cytotoxicity, dose response, cytotoxicity control for Vif-APOBEC3G degradation inhibitor project, THP-1 cells (AID 1117359); type: functional; details: Human immunodeficiency virus 1, THP-1
[21] = Luminescence Cell-Based Dose Retest to Confirm Inhibitors of Cancer Stem Cells. [Related pubchem assays (depositor defined):AID2717, AID2721]; type: functional; details: Homo sapiens
INS1 = assay: beta cell apoptosis inhibitors, cytokine rescue, dose response, luminescence, retest (AID 449756); type: functional, cell-based; details: Rattus norvegicus;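 further: cell death triggered by IL-1 beta plus TNF-alpha plus IFN-gamma mixture; protective hits raise ATP signal compared with cytokine alone wells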
[22] = non-specific cell cytotoxicity, dose response, cytotoxicity control for PAX8 inhibitor project, plate reader, dry powder samples (AID 743021); type: functional, cell-based

Luciferin 4-monooxygenase, sequence (P08659 whole entry): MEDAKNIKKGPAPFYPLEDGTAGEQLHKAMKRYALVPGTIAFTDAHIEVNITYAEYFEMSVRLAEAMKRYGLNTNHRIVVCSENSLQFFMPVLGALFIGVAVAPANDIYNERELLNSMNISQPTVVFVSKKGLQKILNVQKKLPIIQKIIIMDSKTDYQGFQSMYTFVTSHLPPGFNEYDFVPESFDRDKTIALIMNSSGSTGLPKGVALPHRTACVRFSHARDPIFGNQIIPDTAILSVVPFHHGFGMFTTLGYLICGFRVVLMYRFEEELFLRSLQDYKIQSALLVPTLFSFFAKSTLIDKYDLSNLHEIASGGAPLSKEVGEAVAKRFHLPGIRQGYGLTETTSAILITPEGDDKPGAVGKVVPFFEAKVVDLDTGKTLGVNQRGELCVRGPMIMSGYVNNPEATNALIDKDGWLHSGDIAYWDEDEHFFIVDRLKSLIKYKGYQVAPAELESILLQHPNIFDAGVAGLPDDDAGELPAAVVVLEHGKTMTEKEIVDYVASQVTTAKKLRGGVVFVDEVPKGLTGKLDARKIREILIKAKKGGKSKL

Cc1ccnc(Nc2nc3ccccc3o2)n1
EC50 [1]: 3.04 µM (active)
EC50 (HT-1080): > 50 µM (not active)
IC50 [2]: > 50 µM (not active)
AC50 [3]: 43.5 µM (active)
AC50 [4]: 46.8 µM (active)
AC50 [5]: 5.98 µM (active)
AC50 [6]: 4.77 µM (active)
AC50 [7]: 30.1 µM (active)

FC(F)(F)c1cnc(Oc2ccccc2-c2nnc(-c3ccc(Cl)cc3)o2)c(Cl)c1
IC50 [8]: > 123 µM (inactive)
IC50 [9]: > 123 µM (inactive)

O=C1N=C(S)SC1=C1CCCC1
IC50 (Estrogen receptor beta [10]): > 50 µM (not active)
IC50 (Estrogen receptor beta [11]): 0.24 µM (not active)
IC50 [12]: 5.61 µM (active)
IC50 [13]: 7.39 µM (active)
IC50 [8]: 47.5 µM (inactive)
IC50 [9]: > 122 µM (inactive)

C[C@@H]1CCCCO[C@H](CN(C)Cc2ccc(C(F)(F)F)cc2)[C@H](C)CN([C@H](C)CO)C(=O)c2cc(NC(=O)c3ccccc3)ccc2O1
AC50 (Paired box protein Pax-8): 10.1 µM (active)
AC50 [14]: 43.7 µM (active)
AC50 [15]: 45.2 µM (active)

CCOC(=O)N1CCN(Cc2nc(N)nc(Nc3ccc(Oc4ccccc4)cc3)n2)CC1
IC50 [16]: > 20 µM (inactive)

Cc1nnc2sc(SCC(=O)Nc3ccc(Br)cc3)nn2c1=O
IC50 [17]: > 109 µM (inactive)
IC50 [18]: > 83.3 µM (inactive)

CCN=c1ccc(Br)cc(C(=O)/C=C/c2ccc3c(c2)OCO3)c1O
CC50 [19]: 13.8 µM (active)
IC50 [16]: > 20 µM (inactive)
CC50 [20]: 32.6 µM (active)

O=C(C[C@@H]1C/C=C/CC[C@H](Cc2ccc(F)cc2)C(=O)OC[C@@H](Cc2ccccc2)NC1=O)N[C@H](CO)Cc1ccccc1
AC50 [21]: 0.956 µM (active)
AC50 (INS1): 5 µM (active)
AC50 (Paired box protein Pax-8): 15 µM (active)
AC50 [22]: 33.4 µM (active)

CCOC(=O)c1c(NC(=O)CSc2nnc(-c3ccco3)o2)sc(C)c1C
IC50 [17]: > 109 µM (inactive)
IC50 [18]: > 83.3 µM (inactive)

O=C(NCc1ccccc1)c1[nH]nnc1-c1ccccc1O
IC50 [8]: 108 µM (inactive)
IC50 [9]: > 122 µM (inactive)
